In general, IC50 refers to the concentration at which inhibition is half-maximal.

The nature of one data set: in vitro. The conditions noted are these: African green monkey.
The conditions of data set [1]: Phase I, patients with advanced solid tumors; cited from earlier work.
Data set [2] concerns the target SARS-CoV-2 papain-like protease (Severe acute respiratory syndrome coronavirus 2, UniProt P0DTD1). In kind it is biochemical. The note with it: for inhibition of papain-like protease activity versus negative control: 50 μM inhibitor, 0.2 μM enzyme (FIG. 4, FIG. 5).

In turn, `Br.COCCn1c2c([n+](Cc3cnccn3)c1C)C(=O)c1ccccc1C2=O` [YM155, Sepantronium Bromide] displayed a CC50 in “in vitro” of over 133 µM. In addition, the “MTD (maximum tolerated dose)” value in data set [1] was 8.0 mg/m^2/d. Further, the IC50 in data set [2] (200 nM enzyme, 20 μM substrate, 10 min room temperature, read-out: IC50, inhibitory activity on novel coronavirus papain-like protease) amounted to 2.47 µM.

`C[C@H]1COC2=C1C(=O)C(=O)c1c2ccc2c1CCCC2(C)C` [cryptotanshinone, Cryptotanshinone] showed a CC50 in the data set “in vitro” of over 300 µM. The “inhibition of papain-like protease activity versus negative control” value in data set [2] is given as “significantly inhibit”.

Consider `Cc1coc2c1C(=O)C(=O)c1c-2ccc2c(C)cccc12` [tanshinone I, Tanshinone I], for which the CC50 in the data set “in vitro” was over 300 µM. For the same molecule, the “inhibition of papain-like protease activity versus negative control” value in data set [2] is given as “significantly inhibit”.
